Results: US20240197661A1, “ORAL DOSAGE FORMS OF METHYL HYDROGEN FUMARATE AND PRODRUGS THEREOF” (Arbor Pharmaceuticals, LLC, priority 2012, published 2024)

Assays:
healthy adult subjects = test: safety and tolerability in single-dose food effect study; type: in vivo, human; details: single 100 mg dose, fed and fasted
Excerpt: Twelve healthy adult volunteers (males and females) participated in the study. All twelve subjects received […] a dosage form of Example 3, once in a fed condition and once in a fasted condition, with a two-week washout between treatments. The fasted dosing was achieved by dosing the subject following an overnight fast while the fed dosing was achieved by dosing the subject after consuming a high fat-content breakfast.
All 12 subjects completed the dosing period. All adverse events were mild.

[1] = tested on: subjects with moderate-to-severe plaque psoriasis; test: 24-week placebo-controlled efficacy study in plaque psoriasis; type: in vivo, human; details: for patients achieving PASI-75 / patients achieving an IGA score of 0 or 1: week 24
Description: (§1) Study subjects were enrolled at 76 US sites. Patients had chronic plaque psoriasis for more than 6 months, PASI (Psoriasis Area and Severity Index) scores ≥12, IGA (Investigator's Global Assessment) Scores ≥3, and psoriasis BSA (Body Surface Area) ≥10%. Altogether 426 subjects were randomized in a 1:1:1:1 ratio into 4 dose arms: 400 mg QD, 400 mg BID, 600 mg BID, and placebo. A 5-week titration phase was followed by 19 weeks of treatment. The co-primary end points at week 24 were the percentages of patients achieving an at least 75% reduction of their baseline PASI (“PASI-75”) and an IGA score of ‘clear’ or ‘almost clear’ (i.e., 0 or 1).

[2] = tested on: subjects with moderate-to-severe plaque psoriasis; test: safety (adverse events) in 24-week plaque psoriasis study; type: in vivo, human
Description: as §1

[3] = degradation of MHF prodrugs in pH 6.0 phosphate buffer with sodium acetate
Description: Each prodrug was placed in a pH 6.0 phosphate buffer with multiple concentrations of sodium acetate (0.0 M, 0.1 M, 0.5 M, 2.0 M, 3.0 M, and 4.0 M) at 40° C. The presence of prodrug was measured over time up to 42 hours. The rate of prodrug degradation can be expressed according to the following formula: In (A)=In (A0)−Kobs●t, wherein A is the prodrug concentration, A0 is the prodrug concentration at time zero and Kobs is the observed slope of the curve plotting In (A) versus time (t). Thus, the higher the Kobs, the more quickly the prodrug is degrading.

CCN(CC)C(=O)COC(=O)/C=C/C(=O)OC [PPC-06, (N,N-Diethylcarbamoyl)methyl methyl (2E)but-2-ene-1,4-dioate]
severity of adverse events (healthy adult subjects): mild
tolerability during the trial (healthy adult subjects): well tolerated
patients achieving PASI-75 ([1]; 400 mg BID, p=0.002 vs placebo): 47.2%
patients achieving an IGA score of 0 or 1 ([1]; 400 mg BID, p=0.021 vs placebo): 41.4%
patients achieving PASI-75 ([1]; 400 mg QD, p=0.004 vs placebo): 39.7%
patients achieving an IGA score of 0 or 1 ([1]; 400 mg QD, p=0.044 vs placebo): 35.7%
patients achieving PASI-75 ([1]; 600 mg BID, p=0.004 vs placebo): 44.3%
patients achieving an IGA score of 0 or 1 ([1]; 600 mg BID, p=0.010 vs placebo): 44.4%
efficacy compared to placebo ([1]; 24 weeks of treatment, three dose strengths): significant efficacy compared to placebo
patients reporting diarrhea (TEAE) ([2]; 400 mg BID): 18%
patients reporting diarrhea (TEAE) ([2]; 400 mg QD): 7%
patients reporting diarrhea (TEAE) ([2]; 600 mg BID): 23%
flushing reported ([2]; PPC-06 treatment arms): 1-2%
subjects developing CTCAE grade 3 lymphopenia ([2]; during treatment, recovered on discontinuation): Two
new or unexpected adverse events compared to DMF drugs ([2]; in vivo): No new or unexpected adverse events
severity of most cases of diarrhea ([2]; in vivo): mild to moderate
nausea and abdominal pain reported ([2]; overall PPC-06 population): less than 10%
formation rates of both primary degradation products ([3]; 14.6 hour exposure, pH 6.0, 40° C., varying acetate concentration): increased with increasing acetate concentration
effect of acetate on degradation rate compared to DMF ([3]; pH 6.0, 40° C.): more pronounced
degradation rate (Kobs) as a function of acetate concentration ([3]; pH 6.0 phosphate buffer, sodium acetate 0.0-4.0 M, 40° C., up to 42 hours): increased with increasing concentrations of acetate
